Experimental findings from ChEMBL document CHEMBL3864145, “Synthesis and biological evaluation of crown ether acyl derivatives” (Bioorg Med Chem Lett, 2016) are described below.

Data set [1] is described as follows: Cytotoxicity against telomerase-immortalized human BJ cells assessed as growth inhibition after 48 hrs by SRB assay. It counts as toxicity, cell-based. (In general: Sulforhodamine B stains cellular protein and so reports cell mass.)
The nature of data set [2]: Cytotoxicity against human SW1573 cells assessed as growth inhibition after 48 hrs by SRB assay. It counts as functional. The following applies: SW1573, 48 h.
In data set [3] the test system is Staphylococcus aureus. As to the kind of experiment: Antibacterial activity against Staphylococcus aureus ATCC 25923 at 50 uM after 24 hrs by UV/Vis spectrophotometer relative to control. Format: functional. The following applies: ATCC 25923, 24 h.
Data set [4] can be described thus: Cytotoxicity against human WiDr cells assessed as growth inhibition after 48 hrs by SRB assay. Format: functional.
For another data set, the system named is Enterococcus faecalis. As to the kind of experiment: Antibacterial activity against Enterococcus faecalis ATCC 29212 at 50 uM after 24 hrs by UV/Vis spectrophotometer relative to control. The following applies: ATCC 29212, 24 h. It counts as functional.
The nature of data set [5]: Cytotoxicity against human HBL100 cells assessed as growth inhibition after 48 hrs by SRB assay. As to conditions: HBL-100, 48 h. It counts as functional.
The nature of data set [6]: Cytotoxicity against human HeLa cells assessed as growth inhibition after 48 hrs by SRB assay. It counts as functional.
Another data set has as its system Escherichia coli. Kind of data set: Antibacterial activity against Escherichia coli ATCC 25922 at 50 uM after 24 hrs by UV/Vis spectrophotometer relative to control. It counts as functional. The following applies: ATCC 25922, 24 h.
Data set [7] has as its system Candida albicans. As to the kind of experiment: Antifungal activity against Candida albicans ATCC 90028 at 50 uM after 48 hrs by UV/Vis spectrophotometer relative to control. Format: functional. The following applies: ATCC 90028, 48 h.
Data set [8] deals with Staphylococcus aureus. Kind of data set: Antibacterial activity against Staphylococcus aureus ATCC 25923 by broth microdilution method. Format: functional. Background: Broth dilution looks for growth in wells or tubes with falling amounts of substance.
In data set [9] the test system is Candida albicans. Kind of data set: Antifungal activity against Candida albicans ATCC 90028 by broth microdilution method. It counts as functional.
The nature of data set [10]: Ratio of MIC50 for Staphylococcus aureus ATCC 25923 to GI50 for human HeLa cells. Format: functional.
A short description of data set [11]: Ratio of MIC50 for Staphylococcus aureus ATCC 25923 to GI50 for human HBL100 cells. Format: functional, HBL-100.
Data set [12] can be described thus: Ratio of MIC50 for Staphylococcus aureus ATCC 25923 to GI50 for human SW1573 cells. Format: functional.
The nature of data set [13]: Ratio of MIC50 for Staphylococcus aureus ATCC 25923 to GI50 for human WiDr cells. Format: functional.

Each structure is given as a SMILES string. In brackets after ≈: the same amount, converted by molar mass.

In general, GI50 refers to the concentration that inhibits growth by half. A word on the inhibition: it is the relative decrease from the control value, in per cent. For orientation: MIC90 means the lowest concentration that inhibits either 90% of growth or 90% of the strains tested, depending on the study. In general, MIC50 refers to an inhibitory concentration at the 50% level, which refers to growth in some studies and to a panel of isolates in others.

Consider `COc1ccc(/C=C/C(=O)OCC2COCCOCCOCCOCCOCCO2)cc1` (stereo unspecified), for which the GI50 at 48 h in [1] was more than 100 µM. Moreover, the GI50 came to 54 µM in [2], 56 µM in data set [4], 50 µM in [5] and 56 µM in data set [6]. Moreover, the inhibition at 50 µM in the data set with Staphylococcus aureus [3] was found to be 0%; in the data set on Enterococcus faecalis, 0%; in the data set on Escherichia coli, 7.3%; with Candida albicans [7] it was 0%.

As for `O=C(CCCCCc1ccccc1)OCC1COCCOCCOCCOCCOCCO1` (stereo unspecified), the GI50 in [2] was 78 µM; in data set [4], more than 100 µM; in data set [5], 64 µM; in data set [6] it was 79 µM. Moreover, the inhibition at 50 µM amounted to 0% with Staphylococcus aureus [3], 0% in the data set on Enterococcus faecalis, 5.8% in the data set on Escherichia coli and 11% in the data set with Candida albicans [7].

For the compound `O=C(O)c1cn(C2CC2)c2cc(N3CCNCC3)c(F)cc2c1=O` [CIPROFLOXACIN], in the data set on Staphylococcus aureus [8], the MIC90 stood at 0.5 µg/mL.

As to `O=C(CCCCC1CCCCC1)OCC1COCCOCCOCCO1` (stereo unspecified), the GI50 in data set [2], in data set [4], in data set [5] and in [6] was more than 100 µM each time. Besides, the inhibition at 50 µM with Staphylococcus aureus [3] worked out at 0%; with Enterococcus faecalis, 0%; with Escherichia coli, 4.9%; with Candida albicans [7], 0%.

For the compound `O=C(CCCCC1CCCCC1)OCC1COCCOCCOCCOCCOCCO1` (stereo unspecified), the GI50 in data set [2] came to 51 µM; in data set [4], 33 µM; in data set [5], 72 µM; in [6], 71 µM. Moreover, the inhibition at 50 µM with Staphylococcus aureus [3] was 61%; with Enterococcus faecalis, 0%; in the data set on Escherichia coli it was 0%; in the data set with Candida albicans [7] it was 0%.

As for `O=C(CCCCC1CCCCC1)OCC1COCCOCCOCCOCCO1` (stereo unspecified), the GI50 in [2], in data set [4], in data set [5] and in data set [6] was more than 100 µM in each case. Further, the inhibition at 50 µM worked out at 0% in the data set with Staphylococcus aureus [3], 0% in the data set on Enterococcus faecalis, 3.1% with Escherichia coli and 0% with Candida albicans [7].

Consider `O=C(CCCc1cc2ccccc2[nH]1)OCC1COCCOCCOCCOCCOCCO1` (stereo unspecified), for which the GI50 in data set [2], in [4], in data set [5] and in [6] was more than 100 µM throughout.

For the compound `CC(=O)OCC1COCCOCCOCCOCCOCCO1` (stereo unspecified), the GI50 in data set [2], in data set [4], in data set [5] and in data set [6] was more than 100 µM each time.

Turning to `O=C(Cc1cccc(OCc2ccccc2)c1)OCC1COCCOCCOCCOCCOCCO1` (stereo unspecified), in data set [1], the GI50 at 48 h worked out at 22 µM. In addition, the GI50 in data set [2] turned out to be 36 µM; in data set [4] it was 24 µM; in [5] it was 29 µM; in data set [6], 35 µM. The inhibition at 50 µM turned out to be 0% with Staphylococcus aureus [3], 0% in the data set on Enterococcus faecalis, 3.6% in the data set with Escherichia coli and 0% in the data set with Candida albicans [7].

On to `O=C(CCCCc1ccccc1)OCC1COCCOCCOCCOCCOCCO1` (stereo unspecified), for which the GI50 is more than 100 µM in [2], more than 100 µM in data set [4], 69 µM in data set [5] and 52 µM in data set [6]. Further, the inhibition at 50 µM was 0% with Staphylococcus aureus [3], 0.3% with Enterococcus faecalis, 5% in the data set on Escherichia coli and 5.5% with Candida albicans [7].

As to `O=C(OCC1COCCOCCOCCOCCOCCO1)c1cccnc1` (stereo unspecified), the GI50 in data set [2], in data set [4], in [5] and in data set [6] was more than 100 µM in each case. Moreover, the inhibition at 50 µM was 0% in the data set with Staphylococcus aureus [3], 6.8% in the data set on Enterococcus faecalis, 6.2% in the data set with Escherichia coli and 24% in the data set with Candida albicans [7].

For `COc1cc([C@@H]2c3cc4c(cc3[C@@H](O[C@@H]3O[C@@H]5CO[C@@H](C)O[C@H]5[C@H](O)[C@H]3O)[C@H]3COC(=O)[C@H]23)OCO4)cc(OC)c1O` [ETOPOSIDE], the GI50 in data set [2] was 15 µM; in data set [4], 23 µM; in data set [5], 1.4 µM; in data set [6] it was 3.3 µM.

Take `O=C(CCCCCCCCCCOc1ccccc1)OCC1COCCOCCOCCOCCOCCO1` (stereo unspecified): the GI50 at 48 h in data set [1] is 24 µM. Further, the GI50 came to 24 µM in [2], 66 µM in data set [4], 20 µM in [5] and 41 µM in data set [6]. Further, the inhibition at 50 µM in the data set with Staphylococcus aureus [3] came to 29%; in the data set on Enterococcus faecalis, 2.1%; with Escherichia coli, 0%; in the data set on Candida albicans [7], 101%. Moreover, in the data set with Candida albicans [9], the MIC90 came out at 36 µM.

For the compound `C[C@@H]1[C@H](O)[C@@H](C)/C=C/C=C/C=C/C=C/C=C/C=C/C=C/[C@H](O[C@@H]2O[C@H](C)[C@@H](O)[C@H](N)[C@@H]2O)C[C@@H]2O[C@](O)(C[C@@H](O)C[C@@H](O)[C@H](O)CC[C@@H](O)C[C@@H](O)CC(=O)O[C@H]1C)C[C@H](O)[C@H]2C(=O)O` [AMPHOTERICIN B], the MIC90 in the data set with Candida albicans [9] came to 0.5 µg/mL.

For the compound `O=C(OCC1COCCOCCOCCOCCOCCO1)c1cccc(-c2ccc(Br)cc2)c1` (stereo unspecified), the GI50 at 48 h in data set [1] worked out at 8.2 µM. Also, the GI50 was 4.4 µM in data set [2], 6.2 µM in data set [4], 6.4 µM in data set [5] and 7.8 µM in [6]. Also, the inhibition at 50 µM with Staphylococcus aureus [3] is 98%; with Enterococcus faecalis it was 0%; with Escherichia coli, 6.5%; with Candida albicans [7], 1%. In the data set on Staphylococcus aureus [8], the MIC50 came to 6.8 µg/mL. The MIC90 in the data set on Staphylococcus aureus [8] turned out to be 25 µM.

As for `O=C(OCC1COCCOCCOCCOCCOCCO1)c1c2ccccc2cc2ccccc12` (stereo unspecified), the Ratio in [10], in data set [11], in data set [12] and in [13] was 4 in each case. The GI50 at 48 h in data set [1] turned out to be 5.4 µM. Further, the GI50 turned out to be 3.8 µM in data set [2], 5.6 µM in data set [4], 5 µM in data set [5] and 3.7 µM in data set [6]. The inhibition at 50 µM in the data set on Staphylococcus aureus [3] came out at 98%; in the data set with Enterococcus faecalis, 0%; in the data set on Escherichia coli, 7.8%; in the data set with Candida albicans [7] it was 4.3%. For the same compound, the MIC50 with Staphylococcus aureus [8] is 11.1 µg/mL. The same compound displayed an MIC90 in the data set on Staphylococcus aureus [8] of 50 µM.

For the compound `O=C(/C=C/c1ccccc1)OCC1COCCOCCOCCOCCOCCO1` (stereo unspecified), the GI50 in [2] was 48 µM; in data set [4], more than 100 µM; in data set [5], 57 µM; in data set [6] it was 48 µM. The inhibition at 50 µM in the data set with Staphylococcus aureus [3] came out at 3.4%; with Enterococcus faecalis, 3.3%; with Escherichia coli it was 5.9%; in the data set with Candida albicans [7], 36.7%.

With `CC1(C(=O)OCC2COCCOCCOCCOCCOCCO2)c2ccccc2-c2ccccc21` (stereo unspecified), the GI50 at 48 h in data set [1] is 18 µM. For the same compound, the GI50 was 8.8 µM in data set [2], 12 µM in data set [4], 11 µM in data set [5] and 12 µM in data set [6]. The inhibition at 50 µM in the data set with Staphylococcus aureus [3] is 0%; with Enterococcus faecalis, 0%; in the data set on Escherichia coli, 0.1%; with Candida albicans [7], 0%.

On to `O=C(CCCCOc1ccccc1)OCC1COCCOCCOCCOCCOCCO1` (stereo unspecified), for which the GI50 in data set [2], in [4], in data set [5] and in data set [6] was more than 100 µM in each case. The inhibition at 50 µM in the data set on Staphylococcus aureus [3] was 0%; with Enterococcus faecalis, 3.5%; in the data set on Escherichia coli, 8.1%; with Candida albicans [7] it was 1.6%.

For the compound `CC/C=C/CC(=O)OCC1COCCOCCOCCOCCOCCO1` (stereo unspecified), the GI50 in [2], in data set [4], in data set [5] and in data set [6] was more than 100 µM in each case. Also, the inhibition at 50 µM stood at 6.9% in the data set with Staphylococcus aureus [3], 4.7% in the data set on Enterococcus faecalis, 4.3% with Escherichia coli and 9.4% in the data set with Candida albicans [7].

On to `CC(C)=CC1C(C(=O)OCC2COCCOCCOCCOCCOCCO2)C1(C)C` (stereo unspecified), for which the GI50 at 48 h in data set [1] is more than 100 µM. Moreover, the GI50 is 54 µM in data set [2], 56 µM in data set [4], 40 µM in data set [5] and 63 µM in data set [6]. Moreover, the inhibition at 50 µM in the data set on Staphylococcus aureus [3], with Enterococcus faecalis, in the data set with Escherichia coli and in the data set on Candida albicans [7] was 0% throughout.

Consider `O=C(CCc1ccc2ccc3cccc4ccc1c2c34)OCC1COCCOCCOCCOCCOCCO1` (stereo unspecified), for which, in data set [1], the GI50 at 48 h came out at 19 µM. In addition, the GI50 in data set [2] was 18 µM; in data set [4], 19 µM; in data set [5], 21 µM; in data set [6], 17 µM. In addition, the inhibition at 50 µM in the data set on Staphylococcus aureus [3] worked out at 99%; with Enterococcus faecalis, 0%; with Escherichia coli, 0%; in the data set on Candida albicans [7], 101%. Besides, the MIC50 against Candida albicans [9] is 20.1 µg/mL (≈ 36.5 µM); against Staphylococcus aureus [8] it was 7.2 µM. Also, the MIC90 with Candida albicans [9] was 42 µM; in the data set with Staphylococcus aureus [8], 8.3 µM.
